Test results reported in patent US20210290676A1, “IMPROVING THE EFFICACY AND SAFETY OF ADOPTIVE CELLULAR THERAPIES” (University of Southern California, priority 2018, published 2021).

Tests used:
[1] = tested on: CD8+CD45RA+CCR7+CD62L+ T cells; test: Flow cytometry for CD8, CD45RA, CCR7 and CD62L on inhibitor-treated T cells; type: cell-based, human; settings: cells cultured for 14 days
In short: (§1)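 Donor T cells were isolated from PBMC with CD3 microbeads and activated overnight in XVIVO 15 with IL2 50 IU/ml plus 30 ng/ml anti-CD3/CD28. They were treated with drugs from day 1, with medium and drug refreshed on days 7 and 13. After 13–14 days, cells were stained for CD8, CD45RA, CCR7 and CD62L (4 °C, 1 h) and analysed by flow cytometry.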

Nalm6-GLuc cells = test: Blinatumomab induced cell death by inhibitor-treated T cells, Matador cytotoxicity assay; type: cell-based; settings: Blinatumomab 100 ng/million T cells, overnight
Protocol: After 20 days of treatment with the inhibitors, cells from the preceding experiment were tested for their ability to induce Blinatumomab induced cell death using the Matador cytotoxicity assay. For this purpose, untreated and inhibitors-treated T cells were plated in a 24 well plate at 2×10^5 cells/well either alone or in the presence of 2×10^5 Nalm6-GLuc cells in XVIVO medium without any additional growth factors. Blinatumomab (Blincyto) was added at final concentration of 100 ng/million T cells. Cells were cultured overnight and next day supernatant was collected and assayed using the Matador assay. For the Matador Assay, 15 μl of supernatant was added to 15 μl of XVIVO medium in each well of a 384-well plate and hGLuc assay was done by adding 15 μl of 1:100 CTZ per well in well mode.

[2] = tested on: Pgp+ (DiOC2(3)-dye effluxing cells) and CD62L+ T cells; test: DiOC2(3) dye efflux plus CD62L-APC staining, flow cytometry of inhibitor-treated T cells; type: cell-based, human; settings: treatment for 13 days, IL2 + CD3 and CD28 antibodies
In short: (§2)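 Donor PBMC-derived T cells, stimulated with IL2 (50 IU/ml) and/or CD3/CD28 antibodies (30 ng/ml), were exposed to inhibitors from day 1 for about 13 days with periodic drug re-addition. Cells were loaded with DiOC2(3) (60 ng/ml, 4° C, 40 min), effluxed at 37° C for 90 min, and optionally stained with CD62L-APC. Flow cytometry scored DiOC2(3)-dull (Pgp+) and CD62L+ populations.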

[3] = tested on: CD45RA+CCR7+CD62L+ T cells; test: Flow cytometry for CD45RA, CCR7 and CD62L on inhibitor-treated T cells (all T cells); type: cell-based, human; settings: cells cultured for 14 days
In short: as §1

[4] = tested on: Pgp+ (DiOC2(3)-dye effluxing) T cells; test: DiOC2(3) dye efflux flow cytometry of inhibitor-treated T cells; type: cell-based, human; settings: treatment for 13 days, IL2 + CD3 and CD28 antibodies
In short: as §2

[5] = Leukapheresis with and without mobilization and manufacturing of CAR-T/TCR-T cells from cancer patients; type: in vivo, human
Protocol: A study is conducted to compare the generation of cell therapy products from cancer patients who have received 2 or more cycles of prior chemotherapy. Patients with different types of different cancers (e.g., diffuse large B cell lymphoma, acute B-ALL, CLL, multiple myeloma, breast cancer, ovarian cancer, lung cancer etc.) are eligible. Leukapheresis products are collected from the subjects with and without mobilization with Perixafor (0.24 mg/kg subcutaneously daily on days 1-3). T cells are isolated and used for manufacturing of CAR-T and TCR-T cells using lentiviral mediated gene transduction as described in the preceding sections.

T cells = test: In vitro expansion of CAR/TCR T cells with bispecific engagers and antigen presenting cells or substrate (CFSE staining); type: cell-based, human
Protocol: Buffy coat cells are obtained from healthy de-identified adult donors from the Blood Bank and used to isolate peripheral blood mononuclear cells (PBMC) by Ficoll-Hypaque gradient centrifugation. PBMC are either used as such or used to isolate T cells using CD3 magnetic microbeads (Miltenyi Biotech) and following the manufacturer's instructions. PBMC or isolated T cells are re-suspended in XVIVO medium (Lonza) supplanted with 10 ng/ml CD3 antibody, 10 ng/ml CD28 antibody and 100 IU recombinant human-IL2. In an alternate embodiment, PBCM or T cells are activated by resuspending them at concentration of 5×10^5 cells/ml in fresh XVIVO media containing Blinatumomab (10 ng/ml) plus irradiated (100 Gy) REC-1 cells (Mantle Cell lymphoma; ATCC Catalog #CRL-3004) at concentration of 5×10^6 cells/ml in the presence of 50 IU recombinant human-IL2. In another alternate embodiment, the cell culture medium further contains a purified CD19×CD28 bispecific antibody (SEQ ID NO: 2708, 2705 or 2706) and/or a CD19×41BB bispecific antibody (SEQ ID NO: 2761, 2762, 2758 or 2764) each at concentration of about 10 ng/ml. Cells are cultured at 37° C., in a 5% CO2 humidified incubator. Cells are activated in the above medium for 1 day prior to infection with lentiviral vectors encoding a CAR or a TCR (e.g., SEQ ID NO: 2822 to 2835) or a TCR (SEQ ID NO: 2836). In general, primary cells (e.g. T cells) are infected in the morning using spin-infection (1800 rpm for 90 minutes at 37° C. with 300 μl of concentrated virus that has been re-suspended in XVIVO medium in the presence of 8 μg/ml of Polybrene® (Sigma, Catalog no. H9268). After the infection, the cells are pelleted and resuspended at concentration of 5×10^5 cells/ml in fresh XVIVO media containing Blinatumomab (10 ng/ml) plus irradiated (100 Gy) REC-1 (Mantle Cell lymphoma; ATCC Catalog #CRL-3004) cells (5×10^6 cells/ml) and 50 IU recombinant human-IL2. Cells are cultured in the above medium for 10-15 days. Culture media is supplemented with fresh REC-1 cells, blinatumomab and IL2 every 2-4 days. […] The expanded CAR-T cells are subsequently used for in vitro cytotoxicity studies, in vivo efficacy studies in NSG mice and clinical trial of patients with cancers expressing the antigens targeted by the CAR/TCR using methods known in the art.
The above experiment is also repeated using CD19+ RAJI and NALM6 cells. […] Thus, mantle cell lymphoma cells and, in particular, REC-1 cells are the preferred antigen presenting cells for expansion of T cells (e.g., CAR-T cells, TCR-T cells and TILs) when used in conjuction with bispecific T cell engagers that has at least one binding domain that binds to an antigen expressed on REC-1 (e.g, CD19, CD20, CD22 and BCMA). […]

## CCC(CC)n1ccc2c(C(=O)NCc3c(C)cc(C)[nH]c3=O)cc(C#N)cc21 [EI1]
[1]; 500 nM
  GATE P4 CD8(PerCP)+, CD45RA(FITC)+, CCR7 (PE)+, CD62L(APC): 76.19%
[1]; 1 μM
  GATE P4 CD8(PerCP)+, CD45RA(FITC)+, CCR7 (PE)+, CD62L(APC): 78.47%
Nalm6-GLuc cells; T cells after 20 days of treatment at 500 nM
  Blinatumomab induced cytotoxicity compared to untreated T cells: significant increase in cytotoxicity
[2]; 500 nM
  p5: double +ve pgp+ and CD62L-APC+ from Live cells: 10.2
[2]; 1 μM
  p5: double +ve pgp+ and CD62L-APC+ from Live cells: 19.21
[3]; 500 nM
  GATE P6 CD45RA(FITC)+, CCR7 (PE)+, CD62L(APC): 67.64%
[3]; 1 μM
  GATE P6 CD45RA(FITC)+, CCR7 (PE)+, CD62L(APC): 66.83%
[4]; 500 nM
  p2: pgp+ from Live cells: 33.53
[4]; 1 μM
  p2: pgp+ from Live cells: 59.77

## Cc1cc(C)c(CNC(=O)c2cc(-c3ccc(CN4CCOCC4)cc3)cc3c2cnn3C2CCCC2)c(=O)[nH]1 [EPZ005687]
[1]; 10 nM
  GATE P4 CD8(PerCP)+, CD45RA(FITC)+, CCR7 (PE)+, CD62L(APC): 74.86%
[1]; 100 nM
  GATE P4 CD8(PerCP)+, CD45RA(FITC)+, CCR7 (PE)+, CD62L(APC): 79.65%
Nalm6-GLuc cells; T cells after 20 days of treatment at 100 nM
  Blinatumomab induced cytotoxicity compared to untreated T cells: significant increase in cytotoxicity
[2]; 10 nM
  p5: double +ve pgp+ and CD62L-APC+ from Live cells: 5.21
[2]; 100 nM
  p5: double +ve pgp+ and CD62L-APC+ from Live cells: 3.87
[3]; 10 nM
  GATE P6 CD45RA(FITC)+, CCR7 (PE)+, CD62L(APC): 64.01%
[3]; 100 nM
  GATE P6 CD45RA(FITC)+, CCR7 (PE)+, CD62L(APC): 69.92%
[4]; 10 nM
  p2: pgp+ from Live cells: 23.99
[4]; 100 nM
  p2: pgp+ from Live cells: 16.94

## Cc1cc(=O)n(C)c2cc(N3C(=O)CC[C@H](NS(=O)(=O)CC(C)C)[C@H]3c3ccc(Cl)cc3)ccc12 [LP99]
[1]; 500 nM
  GATE P4 CD8(PerCP)+, CD45RA(FITC)+, CCR7 (PE)+, CD62L(APC): 79.25%
[1]; 1 μM
  GATE P4 CD8(PerCP)+, CD45RA(FITC)+, CCR7 (PE)+, CD62L(APC): 79.77%
Nalm6-GLuc cells; T cells after 20 days of treatment at 1 μM
  Blinatumomab induced cytotoxicity compared to untreated T cells: significant increase in cytotoxicity
[2]; 500 nM
  p5: double +ve pgp+ and CD62L-APC+ from Live cells: 3.52
[2]; 1 μM
  p5: double +ve pgp+ and CD62L-APC+ from Live cells: 4.18
[3]; 500 nM
  GATE P6 CD45RA(FITC)+, CCR7 (PE)+, CD62L(APC): 69.67%
[3]; 1 μM
  GATE P6 CD45RA(FITC)+, CCR7 (PE)+, CD62L(APC): 67.58%
[4]; 500 nM
  p2: pgp+ from Live cells: 19.46
[4]; 1 μM
  p2: pgp+ from Live cells: 20.66

## c1cc(CN2CCCNCCNCCCNCC2)ccc1CN1CCCNCCNCCCNCC1 [Perixafor, 1,1′-[1,4-phenylenebis(methylene)]bis [1,4,8,11-tetraazacyclotetradecane]]
[5]; cancer patients with 2 or more cycles of prior chemotherapy, with versus without mobilization
  yield of T cells in the initial leukapheresis product: improves the yield
[5]; with versus without mobilization
  effect on gene transduction, CAR/TCR expression, in vitro and in vivo expansion, cytotoxicity, cytokine production and anti-tumor efficacy of CAR-T/TCR-T products: no major adverse effect

## Blinatumomab: a CD19×CD3 bispecific antibody
T cells; 10 ng/ml with CD19-ECD beads, CD28 antibody 10 ng/ml and IL2 50 IU, 10-25 days
  expansion of CAR-T cells: Robust expansion
T cells; 10 ng/ml with irradiated REC-1 cells and 50 IU IL2, 10-15 days
  expansion of cells, CFSE staining: Robust expansion
T cells; co-culture with CD19+ RAJI and NALM6 cells instead of REC-1 cells
  degree of expansion of CAR or TCR expressing T cells: less than that observed with REC-1 cells
T cells; combination of Blinatumomab, CD19×CD28 bispecific antibody, REC-1 cells and IL2
  expansion of CAR-expressing PBMC and/or T cells: Robust expansion

## GM-CSF: cytokine used as mobilization agent
[5]; mobilization prior to leukapheresis
  yield of leukapheresis product for generation of CAR-T cells: improve the yield
